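Step 1: Grow cells in 96-well plates. Step 2: Expose to compound for 48 hours at 5 concentrations. Step 3: Interpolate endpoints linearly; if unreached, use highest concentration. GI50 = concentration required for 50% inhibition of growth.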 Calls of active or inactive are those of the source. No stated cut-off is given here; in the data, active = GI50 up to about 1.1 µM and inactive = higher.
Tests used:
Experiment in all cases: DTP human tumour cell line panel, 48 h
[1] = test system: A498
[2] = test system: BT-549
[3] = test system: DU-145
[4] = test system: HCC 2998
[5] = test system: HCT-15
[6] = test system: HOP-62
[7] = test system: HT-29
[8] = test system: IGROV-1
[9] = test system: M14
[10] = test system: MDA-N
[11] = test system: MOLT-4
[12] = test system: Malme-3M
[13] = test system: OVCAR-4
[14] = test system: OVCAR-8
[15] = test system: PC-3
[16] = test system: RXF 393
[17] = test system: SF-295
[18] = test system: TK-10
[19] = test system: UO-31
[20] = test system: SNB-78

Row | Compound | GI50 [1] | GI50 [2] | GI50 [3] | GI50 [4] | GI50 [5] [µM] | GI50 [6] | GI50 [7] | GI50 [8] | GI50 [9] | GI50 [10] | GI50 [11] | GI50 [12] | GI50 [13] | GI50 [14] | GI50 [15] | GI50 [16] | GI50 [17] | GI50 [18] | GI50 [19] | GI50 [20]
1 | Oc1cc(-c2cccc(OC(F)(F)F)c2)nc2cc3c(cc12)OCO3 | 0.516 µM (active) | 0.327 µM (active) | 0.0459 µM (active) | 0.0631 µM (active) | 0.0475 | 0.119 µM (active) | 1.96 µM (inactive) | 0.355 µM (active) | 0.0867 µM (active) | 0.0143 µM (active) | 0.0371 µM (active) | 0.0435 µM (active) | 1.19 µM (inactive) | 0.155 µM (active) | 0.0366 µM (active) | 0.166 µM (active) | 0.0845 µM (active) | 5.19 µM (inactive) | 0.174 µM (active) | –
2 | CC1CCN(CC(=O)N2c3ccccc3Sc3cc4ccccc4cc32)CC1 | > 100 µM (inactive) | > 100 µM (inactive) | > 100 µM (inactive) | 67.6 µM (inactive) | > 100 | > 100 µM (inactive) | 48 µM (inactive) | > 100 µM (inactive) | > 100 µM (inactive) | > 100 µM (inactive) | 36.4 µM (inactive) | > 100 µM (inactive) | > 100 µM (inactive) | > 100 µM (inactive) | > 100 µM (inactive) | > 100 µM (inactive) | > 100 µM (inactive) | > 100 µM (inactive) | > 100 µM (inactive) | –
3 | COc1ccc(/C=C/C=C2C(=O)NC(=S)NC2=O)cc1 | 33.9 µM (inactive) | 2.05 µM (inactive) | 6.03 µM (inactive) | 8.15 µM (inactive) | 3.64 | 19.4 µM (inactive) | 5.77 µM (inactive) | 3.91 µM (inactive) | 10.1 µM (inactive) | 4.07 µM (inactive) | 2.64 µM (inactive) | 3.34 µM (inactive) | 31.2 µM (inactive) | 4.03 µM (inactive) | 12.6 µM (inactive) | 4.35 µM (inactive) | 16.2 µM (inactive) | 2.52 µM (inactive) | 7.45 µM (inactive) | –
4 | O=C1c2ccccc2C(=O)c2c(NC(=O)C(Cl)CCl)cccc21 (stereo unspecified) | 19.2 µM (inactive) | 17.1 µM (inactive) | 7.38 µM (inactive) | 13.6 µM (inactive) | 6.65 | 10.5 µM (inactive) | 3.05 µM (inactive) | 5.02 µM (inactive) | 6.28 µM (inactive) | 10.4 µM (inactive) | < 0.0353 µM (active) | 18.7 µM (inactive) | 10.7 µM (inactive) | 5.56 µM (inactive) | 9.33 µM (inactive) | 6.64 µM (inactive) | 26.7 µM (inactive) | 4.37 µM (inactive) | 10.6 µM (inactive) | –
5 | CNC(=S)N/N=C/c1ccc([N+](=O)[O-])s1 | > 10 µM (inactive) | > 10 µM (inactive) | > 10 µM (inactive) | 8.15 µM (inactive) | > 10 | > 10 µM (inactive) | 3.13 µM (inactive) | > 10 µM (inactive) | > 10 µM (inactive) | > 10 µM (inactive) | > 10 µM (inactive) | 7.53 µM (inactive) | > 10 µM (inactive) | 7.26 µM (inactive) | 3.01 µM (inactive) | > 10 µM (inactive) | > 10 µM (inactive) | > 10 µM (inactive) | > 10 µM (inactive) | –
6 | CCOC(=O)/C(C(=O)c1ccc[nH]1)=C1/CCCN1C | > 100 µM (inactive) | > 100 µM (inactive) | > 100 µM (inactive) | > 100 µM (inactive) | > 100 | > 100 µM (inactive) | > 100 µM (inactive) | > 100 µM (inactive) | > 100 µM (inactive) | > 100 µM (inactive) | 49.5 µM (inactive) | > 100 µM (inactive) | > 100 µM (inactive) | > 100 µM (inactive) | > 100 µM (inactive) | > 100 µM (inactive) | > 100 µM (inactive) | > 100 µM (inactive) | > 100 µM (inactive) | –
7 | COc1cc2oc3cc(=O)cc4oc(-c5ccccc5)cc(c2c2c1CCC(c1ccccc1)O2)c43 (stereo unspecified) | 50.4 µM (inactive) | 80.5 µM (inactive) | 24.3 µM (inactive) | 34.2 µM (inactive) | 20.4 | 41 µM (inactive) | 20.9 µM (inactive) | 33.1 µM (inactive) | 17.4 µM (inactive) | 22 µM (inactive) | 8.95 µM (inactive) | 67.3 µM (inactive) | > 100 µM (inactive) | 50 µM (inactive) | 47.8 µM (inactive) | 54.7 µM (inactive) | 19.1 µM (inactive) | 26.6 µM (inactive) | 55.6 µM (inactive) | –
8 | C[C@@H](C[C@@H](O)[C@H](O)C(C)(C)O)[C@H]1CC=C2[C@]3(C)[C@H](O)C[C@H]4C(C)(C)[C@H](O)CC[C@]4(C)[C@H]3CC[C@@]21C | 15.2 µM (inactive) | 17.1 µM (inactive) | 16.9 µM (inactive) | 17.3 µM (inactive) | 14.7 | 15 µM (inactive) | 13.4 µM (inactive) | 16.3 µM (inactive) | 15.1 µM (inactive) | 15.6 µM (inactive) | 11.1 µM (inactive) | 14.3 µM (inactive) | 14.4 µM (inactive) | 16.1 µM (inactive) | 14.3 µM (inactive) | 17 µM (inactive) | 15 µM (inactive) | 18 µM (inactive) | 15.4 µM (inactive) | –
9 | c1ccc(/N=C2\c3ccsc3/C(=N/c3ccccc3)c3ccsc32)cc1 | 8.11 µM (inactive) | 2.07 µM (inactive) | 1.73 µM (inactive) | 3.94 µM (inactive) | 2.04 | 1.63 µM (inactive) | 2.67 µM (inactive) | 1.92 µM (inactive) | 1.34 µM (inactive) | 0.244 µM (active) | 1.9 µM (inactive) | 0.344 µM (active) | 1.77 µM (inactive) | 2.11 µM (inactive) | 2.16 µM (inactive) | 1.77 µM (inactive) | 1.7 µM (inactive) | 5.6 µM (inactive) | 2.09 µM (inactive) | –
10 | C=C1C(=O)O[C@@H]2CC(CO)=C([C@@H](C)CCCO)[C@@H](OC(=O)/C(C)=C\C)[C@H]12 | 27.8 µM (inactive) | 14.6 µM (inactive) | 8.71 µM (inactive) | 15.3 µM (inactive) | 13.7 | 34.9 µM (inactive) | 12.9 µM (inactive) | 14.5 µM (inactive) | 23.5 µM (inactive) | 15.1 µM (inactive) | 10.8 µM (inactive) | 13.3 µM (inactive) | 22.2 µM (inactive) | 20.6 µM (inactive) | 16 µM (inactive) | 11.9 µM (inactive) | 16.9 µM (inactive) | 18.8 µM (inactive) | 16.8 µM (inactive) | –
11 | O=C(/C=C/c1cccc(Oc2ccccc2)c1)NCc1ccc(C(=O)NCCc2ccccc2)cc1 | > 100 µM (inactive) | > 100 µM (inactive) | > 100 µM (inactive) | > 100 µM (inactive) | > 100 | 27.2 µM (inactive) | 16.9 µM (inactive) | > 100 µM (inactive) | > 100 µM (inactive) | > 100 µM (inactive) | > 100 µM (inactive) | > 100 µM (inactive) | 58.5 µM (inactive) | 24.8 µM (inactive) | > 100 µM (inactive) | 20 µM (inactive) | > 100 µM (inactive) | > 100 µM (inactive) | > 100 µM (inactive) | –
12 | C=C1C(=O)O[C@H]2C3C(=C(C)CC[C@@H]12)C(=O)[C@@H]1OC31C (stereo partly specified) | 11.4 µM (inactive) | 1.95 µM (inactive) | 12.5 µM (inactive) | 14.7 µM (inactive) | 1.66 | 14.8 µM (inactive) | 1.66 µM (inactive) | 5.45 µM (inactive) | 1.68 µM (inactive) | 1.75 µM (inactive) | 1.36 µM (inactive) | 2.2 µM (inactive) | 1.58 µM (inactive) | 2.18 µM (inactive) | 2.69 µM (inactive) | 1.56 µM (inactive) | 14 µM (inactive) | 2.27 µM (inactive) | 4.89 µM (inactive) | –
13 | C[C@]1(CO)CCC[C@@]2(C)C1CC[C@H]1CC3C[C@]12CC[C@]3(C)O (stereo partly specified) | – | – | – | 58.9 µM (inactive) | > 100 | 39.8 µM (inactive) | > 100 µM (inactive) | > 10 µM (inactive) | > 100 µM (inactive) | – | 2.77 µM (inactive) | > 100 µM (inactive) | 46.1 µM (inactive) | > 100 µM (inactive) | – | 46.7 µM (inactive) | > 100 µM (inactive) | 37.5 µM (inactive) | > 10 µM (inactive) | 27.1 µM (inactive)
14 | c1cc(C[S+]2CCCC2)sc1C[S+]1CCCC1 | 39.2 µM (inactive) | > 100 µM (inactive) | > 100 µM (inactive) | > 100 µM (inactive) | > 100 | > 100 µM (inactive) | > 100 µM (inactive) | > 100 µM (inactive) | > 100 µM (inactive) | > 100 µM (inactive) | > 100 µM (inactive) | > 100 µM (inactive) | > 100 µM (inactive) | > 100 µM (inactive) | > 100 µM (inactive) | > 100 µM (inactive) | > 100 µM (inactive) | > 100 µM (inactive) | > 100 µM (inactive) | –
15 | Nc1[nH]c(Nc2ccc(Cl)c(Cl)c2)nc2ncnc1-2 | 6.87 µM (inactive) | 12.9 µM (inactive) | 7.41 µM (inactive) | 14.4 µM (inactive) | 15.3 | 12.9 µM (inactive) | 14.7 µM (inactive) | 4.76 µM (inactive) | 16 µM (inactive) | 17.5 µM (inactive) | 11.7 µM (inactive) | 18.2 µM (inactive) | 20.3 µM (inactive) | 14.7 µM (inactive) | 12 µM (inactive) | 4.78 µM (inactive) | 17.5 µM (inactive) | 13.2 µM (inactive) | 8.73 µM (inactive) | –

— ChEMBL document CHEMBL1201862, “PubChem BioAssay data set” (2004)
